Earlier results on 1 substance are cited in US20260240147A1, “MANCOZEB NANOSUSPENSION AND PREPARATION METHOD THEREOF” (priority 2022, published 2026).

As to “manganese ethylene bis(dithiocarbamate) polymeric complex with zinc salt coordination compound [mancozeb]”, the “solubility in most organic solvents” value is recorded as “insoluble”. Moreover, the solubility in water (pH 7.5, 25° C.) was 6.2 µg/mL.
